Where two headings read alike, the source gives them in different places. Where a SMILES comes first, the peptide text is derived from it.
Columns and labels:
[1] = system: E. coli ATCC 25922, Salmonella Enteritidis, S. aureus ATCC 29213; test: Broth microdilution, panel result (at least one / all strains), Example 2; format: cell-based; parameters: key to inhibitory activity (asterisk): *Indicates inhibitory activity; conditions: Table 14; against at least one of E. coli ATCC 25922, Salmonella Enteritidis, S. aureus ATCC 29213
Protocol: (§1) The antimicrobial activity of the putative AMPs was determined by a broth microdilution assay as described by the Clinical and Laboratory Standards Institute, with the published adaptations for testing of cationic peptides. Escherichia coli 25922 and Staphylococcus aureus 29213 isolates were purchased from the American Type Culture Collection (ATCC; Manassas, VA, USA). A human clinical isolate of Salmonella enterica serovar Enteritidis was provided by the BC Centre for Disease Control. Bacteria from stocks stored at −80° C. were streaked onto nonselective Columbia blood agar with 5% sheep blood (Oxoid) and incubated overnight at 37° C. Next, 2-4 colonies were streaked onto a new agar plate to ensure uniform health of colonies used in the broth microdilution assay. Isolated colonies were suspended in MHB and the optical density was measured with a spectrophotometer to create an initial inoculum concentration of approximately 1×10^8 cfu/mL. The inoculum was diluted 1:250 to a final concentration of 2-8×10^5 cfu/mL, which was confirmed by performing a Total Viability Count (TVC). The TVC consisted of plating a 1:1000 dilution of the final inoculum on nonselective media and was also used to confirm the health and purity of the inoculum in each trial.
(§2) Lyophilized 80 μg peptide aliquots synthesized by GenScript (Piscataway, NJ, USA) were resuspended to 1.28 mg/mL with UltraPure water (Thermo Fisher Scientific, Waltham, MA, USA) and serially diluted in polypropylene 96-well microtiter plates (Greiner Bio-One #650261, Kremsmunster, Austria) from 128 down to 0.5 μg/mL. Two columns per plate were reserved for growth and sterility controls. Inoculum was added to the wells containing the peptide and the growth control. Plates were incubated for 20-24 h at 37° C. The minimum inhibitory concentration (MIC) was determined as the lowest peptide concentration where there was no visible bacterial growth.

S. aureus ATCC 29213 = format: cell-based, Staphylococcus aureus
Protocol: (§3) Bacteria were grown overnight at 37° C. in Mueller-Hinton Broth (MHB; Sigma-Aldrich, St. Louis. MO, USA) in a shaking incubator and aliquoted into cryovials with a 50% glycerol solution in a 1:1 ratio. No additives were added to the MHB during the growth of bacterial isolates. Glycerol stocks were stored at −80° C.
as §1, §2

E. coli ATCC 25922 = format: cell-based, Escherichia coli
Protocol: as §3, §1, §2

[2] = system: Salmonella enterica serovar Enteritidis (human clinical isolate); format: cell-based
Protocol: as §3, §1, §2

[3] = serovar Enteritidis (human clinical isolate)

CC[C@H](C)[C@H](NC(=O)CN)C(=O)N[C@@H](CC(C)C)C(=O)N[C@@H](CCCNC(=N)N)C(=O)N[C@@H](CO)C(=O)N[C@@H](CC(C)C)C(=O)NCC(=O)N[C@@H](Cc1c[nH]c2ccccc12)C(=O)N[C@H](C(=O)N[C@@H](CCC(N)=O)C(=O)N[C@@H](CCSC)C(=O)N1CCC[C@H]1C(=O)N[C@@H](CCCNC(=N)N)C(=O)N[C@@H](CO)C(=O)N[C@@H](CCCNC(=N)N)C(=O)N[C@@H](CCCNC(=N)N)C(=O)N[C@@H](CCCNC(=N)N)C(=O)N[C@@H](Cc1c[nH]cn1)C(=O)N[C@@H](CCCNC(=N)N)C(=O)O)[C@@H](C)CC [AnFI2, GILRSLGWIQMPRSRRRHR] (H-GILRSLGWIQMPRSRRRHR-OH; N-terminus and C-terminus assumed)
inhibitory activity (asterisk) [1]: 721.* GILRSLGWIQMPRSRRRHR

C[C@H](NC(=O)CNC(=O)[C@H](CCCNC(=N)N)NC(=O)[C@H](CCC(=O)O)NC(=O)[C@H](CCC(=O)O)NC(=O)[C@@H](N)CCCCN)C(=O)N1CCC[C@H]1C(=O)N[C@@H](CCCCN)C(=O)NCC(=O)N[C@@H](CS)C(=O)N[C@@H](Cc1c[nH]c2ccccc12)C(=O)N[C@H](C(=O)N[C@@H](CCCCN)C(=O)N[C@@H](CO)C(=O)N[C@@H](Cc1ccc(O)cc1)C(=O)N1CCC[C@H]1C(=O)N1CCC[C@H]1C(=O)N[C@@H](CCCCN)C(=O)N1CCC[C@H]1C(=O)N[C@@H](CS)C(=O)N[C@@H](CO)C(=O)NCC(=O)N[C@@H](CCCCN)C(=O)N[C@@H](CCCNC(=N)N)C(=O)O)[C@@H](C)O [PeNi13] (H-KEERGAPKGCWTKSYPPKPCSGKR-OH; N-terminus and C-terminus assumed)
MIC (ug/mL) S. aureus (S. aureus ATCC 29213; ATCC 29213): >128/>128/>128 ug/mL
MIC (ug/mL) E. coli (E. coli ATCC 25922; ATCC 25922): >128/>128/>128 ug/mL
MIC (ug/mL) S. Enteritidis [2, 3]: >128/>128/>128 ug/mL

CC(C)C[C@H](NC(=O)[C@H](CCCCN)NC(=O)[C@H](CCCCN)NC(=O)[C@H](CC(C)C)NC(=O)[C@@H](NC(=O)[C@H](Cc1ccc(O)cc1)NC(=O)[C@@H](NC(=O)CNC(=O)[C@H](CCC(=O)O)NC(=O)[C@H](CC(N)=O)NC(=O)[C@H](Cc1c[nH]c2ccccc12)NC(=O)[C@@H]1CCCN1C(=O)[C@H](CO)NC(=O)[C@H](CO)NC(=O)[C@@H]1CCCN1C(=O)[C@H](CC(C)C)NC(=O)[C@@H](N)Cc1ccccc1)[C@@H](C)O)C(C)C)C(=O)N[C@@H](CCCCN)C(=O)N[C@@H](CO)C(=O)O [PeNi15, FLPSSPWNEGTYVLKKLKS] (H-FLPSSPWNEGTYVLKKLKS-OH; N-terminus and C-terminus assumed)
MIC (ug/mL) S. aureus (S. aureus ATCC 29213; ATCC 29213): >128/>128/>128 ug/mL
MIC (ug/mL) E. coli (E. coli ATCC 25922; ATCC 25922): >128/>128/>128 ug/mL
MIC (ug/mL) S. Enteritidis [2, 3]: >128/>128/>128 ug/mL

CC[C@H](C)[C@H](NC(=O)[C@H](CCCNC(=N)N)NC(=O)[C@@H](NC(=O)[C@@H]1CCCN1C(=O)[C@H](CCCNC(=N)N)NC(=O)[C@@H](NC(=O)[C@@H]1CCCN1C(=O)[C@H](CCC(N)=O)NC(=O)[C@H](CC(C)C)NC(=O)CNC(=O)[C@@H]1CCCN1C(=O)[C@@H]1CCCN1C(=O)[C@@H](NC(=O)[C@H](CCCCN)NC(=O)[C@H](Cc1c[nH]c2ccccc12)NC(=O)[C@H](C)NC(=O)[C@@H](NC(=O)[C@H](C)N)[C@@H](C)O)C(C)C)[C@@H](C)CC)[C@@H](C)CC)C(=O)N[C@@H](CCCNC(=N)N)C(=O)N1CCC[C@H]1C(=O)N[C@@H](CC(C)C)C(=O)N[C@@H](CS)C(=O)NCC(=O)N[C@@H](CC(N)=O)C(=O)N[C@@H](CC(=O)O)C(=O)N[C@@H](CCCCN)C(=O)N[C@@H](CO)C(=O)O [PeNi16] (H-ATAWKVPPGLQPIRPIRIRPLCGNDKS-OH; N-terminus and C-terminus assumed)
MIC (ug/mL) S. aureus (S. aureus ATCC 29213; ATCC 29213): >128/>128/>128 ug/mL
MIC (ug/mL) E. coli (E. coli ATCC 25922; ATCC 25922): >128/>128/>128 ug/mL
MIC (ug/mL) S. Enteritidis [2, 3]: >128/>128/>128 ug/mL

N=C(N)NCCC[C@H](NC(=O)[C@H](CCCNC(=N)N)NC(=O)[C@H](CO)NC(=O)[C@H](CCCNC(=N)N)NC(=O)[C@H](Cc1c[nH]cn1)NC(=O)[C@H](CO)NC(=O)[C@H](Cc1c[nH]c2ccccc12)NC(=O)[C@H](CCCNC(=N)N)NC(=O)[C@@H]1CCCN1C(=O)[C@@H](N)CCCNC(=N)N)C(=O)O [PeNi18, RPRWSHRSRR] (H-RPRWSHRSRR-OH; N-terminus and C-terminus assumed)
MIC (ug/mL) S. aureus (S. aureus ATCC 29213; ATCC 29213): >128/>128/>128 ug/mL
MIC (ug/mL) E. coli (E. coli ATCC 25922; ATCC 25922): >128/>128/>128 ug/mL
MIC (ug/mL) S. Enteritidis [2, 3]: >128/>128/>128 ug/mL

CC[C@H](C)[C@H](NC(=O)[C@H](C)NC(=O)[C@H](Cc1ccccc1)NC(=O)[C@H](C)NC(=O)[C@H](C)NC(=O)[C@@H](N)C(C)C)C(=O)N[C@H](C(=O)NCC(=O)N[C@@H](CS)C(=O)N[C@@H](CC(C)C)C(=O)N[C@@H](CS)C(=O)N[C@@H](CS)C(=O)N[C@@H](CCCNC(=N)N)C(=O)N[C@@H](CCCNC(=N)N)C(=O)N1CCC[C@H]1C(=O)N[C@@H](CCCNC(=N)N)C(=O)N[C@@H](CCCNC(=N)N)C(=O)O)[C@@H](C)CC [PoRo1, VAAFAIIGCLCCRRPRR] (H-VAAFAIIGCLCCRRPRR-OH; N-terminus and C-terminus assumed)
MIC (ug/mL) S. aureus (S. aureus ATCC 29213; ATCC 29213): >128/>128/>128 ug/mL
MIC (ug/mL) E. coli (E. coli ATCC 25922; ATCC 25922): >128/>128/>128 ug/mL
MIC (ug/mL) S. Enteritidis [2, 3]: >128/>128/>128 ug/mL

CC[C@H](C)[C@H](NC(=O)CNC(=O)[C@H](CO)NC(=O)[C@H](CC(C)C)NC(=O)[C@H](CC(C)C)NC(=O)CN)C(=O)N[C@@H](CC(C)C)C(=O)NCC(=O)N[C@@H](C)C(=O)NCC(=O)N[C@@H](CCCCN)C(=O)N[C@@H](CCCCN)C(=O)O [RaOm1, GLLSGILGAGKK] (H-GLLSGILGAGKK-OH; N-terminus and C-terminus assumed)
MIC (ug/mL) S. aureus (S. aureus ATCC 29213; Table 14, third value of the cell, three independent experiments, highest concentration tested 128): >128/>128/>128 ug/mL
MIC (ug/mL) E. coli (E. coli ATCC 25922; Table 14, first value of the cell, three independent experiments, highest concentration tested 128): >128/>128/>128 ug/mL
MIC (ug/mL) S. Enteritidis ([2]; Table 14, second value of the cell, three independent experiments, highest concentration tested 128): >128/>128/>128 ug/mL

N=C(N)NCCC[C@H](NC(=O)[C@H](CCCNC(=N)N)NC(=O)CNC(=O)[C@H](Cc1ccccc1)NC(=O)[C@@H]1CCCN1C(=O)[C@H](Cc1ccccc1)NC(=O)[C@@H]1CCCN1C(=O)[C@@H](N)Cc1ccccc1)C(=O)O [RaSi2, FPFPFGRR] (H-FPFPFGRR-OH; N-terminus and C-terminus assumed)
MIC (ug/mL) S. aureus (S. aureus ATCC 29213; ATCC 29213): >128/>128/>128 ug/mL
MIC (ug/mL) E. coli (E. coli ATCC 25922; ATCC 25922): >128/>128/>128 ug/mL
MIC (ug/mL) S. Enteritidis [2, 3]: >128/>128/>128 ug/mL

CC(C)C[C@H](NC(=O)CNC(=O)[C@H](Cc1ccccc1)NC(=O)[C@@H]1CCCN1C(=O)[C@@H](N)C(C)C)C(=O)N[C@@H](CCCCN)C(=O)N1CCC[C@H]1C(=O)N[C@@H](CCCNC(=N)N)C(=O)O [TeRu1, VPFGLKPR] (H-VPFGLKPR-OH; N-terminus and C-terminus assumed)
MIC (ug/mL) S. aureus (S. aureus ATCC 29213; ATCC 29213): >128/>128/>128 ug/mL
MIC (ug/mL) E. coli (E. coli ATCC 25922; ATCC 25922): >128/>128/>128 ug/mL
MIC (ug/mL) S. Enteritidis [2, 3]: >128/>128/>128 ug/mL

CC(C)C[C@H](NC(=O)[C@H](Cc1ccccc1)NC(=O)[C@H](CC(C)C)NC(=O)[C@H](CCCCN)NC(=O)[C@H](Cc1c[nH]cn1)NC(=O)[C@@H](NC(=O)[C@H](Cc1ccccc1)NC(=O)[C@H](CO)NC(=O)[C@H](CC(C)C)NC(=O)[C@@H](NC(=O)[C@H](C)N)C(C)C)C(C)C)C(=O)N[C@@H](CC(N)=O)C(=O)N[C@@H](Cc1ccccc1)C(=O)N[C@@H](CC(C)C)C(=O)N[C@@H](Cc1c[nH]cn1)C(=O)N[C@H](C(=O)N[C@@H](CC(=O)O)C(=O)N[C@H](C(=O)N[C@@H](CO)C(=O)N[C@@H](CCCCN)C(=O)NCC(=O)N[C@@H](CCCCN)C(=O)N[C@@H](CS)C(=O)N[C@@H](CCCNC(=N)N)C(=O)N[C@@H](C)C(=O)N[C@H](C(=O)N[C@@H](CC(C)C)C(=O)N[C@@H](CCC(N)=O)C(=O)O)[C@@H](C)O)[C@@H](C)O)C(C)C [TeRu3] (H-AVLSFVHKLFLNFLHVDTSKGKCRATLQ-OH; N-terminus and C-terminus assumed)
MIC (ug/mL) S. aureus (S. aureus ATCC 29213; ATCC 29213): >128/>128/>128 ug/mL
MIC (ug/mL) E. coli (E. coli ATCC 25922; ATCC 25922): >128/>128/>128 ug/mL
MIC (ug/mL) S. Enteritidis [2, 3]: >128/>128/>128 ug/mL

CC[C@H](C)[C@H](NC(=O)[C@@H](N)Cc1ccccc1)C(=O)N[C@@H](CC(C)C)C(=O)N[C@@H](Cc1c[nH]cn1)C(=O)N[C@@H](C)C(=O)N[C@@H](CCCCN)C(=O)N[C@@H](CCCCN)C(=O)N[C@H](C(=O)N[C@@H](CCCNC(=N)N)C(=O)N[C@@H](CO)C(=O)N[C@@H](C)C(=O)N[C@@H](CCCCN)C(=O)O)[C@@H](C)O [VeSi1, FILHAKKTRSAK] (H-FILHAKKTRSAK-OH; N-terminus and C-terminus assumed)
MIC (ug/mL) S. aureus (S. aureus ATCC 29213; ATCC 29213): >128/>128/>128 ug/mL
MIC (ug/mL) E. coli (E. coli ATCC 25922; ATCC 25922): >128/>128/>128 ug/mL
MIC (ug/mL) S. Enteritidis [2, 3]: >128/>128/>128 ug/mL

Source: US20260242416A1, “ANTIMICROBIAL PEPTIDES” (priority 2023, published 2026)
